Like-named read-outs stand apart in the source and are kept apart here.
Tests used:
[1] = Plasma level of thienamycin class compound in the mouse; assay type: in vivo; details: po, 10 mg/kg; for concentration at 0.5 h: 30 minutes; for concentration at 1 h: 60 minutes; for concentration at […]: 90 minutes
Description: (§1) An in vivo assay is conducted using 34 Charles River CD female mice. Seventeen of the mice are administered 40 mg/kg of the inhibitor 7-(L-2-amino-2-carboxyethylthio)-2-(2,2-dimethylcyclopropanecarboxamido)-2-heptenoic acid subcutaneously, and an additional 40 mg/kg per os. Immediately thereafter they and an additional 17 mice are administered 10 mg/kg of the thienamycin class compoud (±)-[5R,6S]-2-ethylthio-6[(R)-1-hydroxyethyl]-pen-2-em-3-sodiocarboxylate by oral gavage. The level of the latter compound in plasma is tested at 10, 30, 60 and 90 minutes using 3 mice from each group at each time period.

[2] = Urinary recovery of thienamycin class compound in the mouse; assay type: in vivo; details: urine, po, 10 mg/kg; for dose excreted: Total
Description: as §1
The remaining 5 mice from each group are tested for urinary recovery of the thienamycin class compound with the following results.

[3] = biological target: T1, renal dipeptidase (E.C.3.4.13.11) (Sus scrofa, UniProt P22412); experiment: Inhibition of glycyldehydrophenylalanine (GDP) hydrolysis by renal dipeptidase in vitro; assay type: biochemical, pig (hog); details: for Ki: read-out: Ki
T1 construct: solubilized preparation of dipeptidase isolated from hog kidneys; from tissue; host or cells: hog kidney
T1 sequence (P22412 17-409): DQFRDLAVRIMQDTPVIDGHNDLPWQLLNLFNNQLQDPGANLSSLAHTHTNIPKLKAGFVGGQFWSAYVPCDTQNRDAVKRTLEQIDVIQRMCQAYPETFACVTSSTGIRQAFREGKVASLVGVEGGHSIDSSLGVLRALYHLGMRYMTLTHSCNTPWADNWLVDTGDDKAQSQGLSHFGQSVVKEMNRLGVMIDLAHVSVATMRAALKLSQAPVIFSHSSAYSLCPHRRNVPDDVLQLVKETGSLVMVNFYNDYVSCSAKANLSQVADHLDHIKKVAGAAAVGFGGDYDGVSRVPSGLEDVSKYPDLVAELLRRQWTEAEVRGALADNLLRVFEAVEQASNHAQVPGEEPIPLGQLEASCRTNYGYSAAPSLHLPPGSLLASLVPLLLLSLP
Description: This measured the ability of compounds to inhibit hydrolysis of glycyldehydrophenylalanine (GDP) by a solubilized preparation of dipeptidase isolated from hog kidneys The procedure is as follows to a 1 ml. system containing 50 mM "MOPS" (3-(N-morpholino)propanesulfonic acid) buffer, pH 7.1, is added 5 μg of lyophilized enzyme, and the test compound at a final concentration of 0.1 mM. After a five minute incubation at 37° C., GDP is added to a final concentration of 0.05 mM. Incubation is continued for 10 minutes, at 37° C. and hydrolysis of GDP is measured by the change in optical density with time at 275 nm. Inhibition of the enzyme is gauged by comparison to a standard run containing no inhibitor and is expressed as the inhibitor binding constant, Ki.
A 1 ml. system of 50 mM "MOPS" buffer, pH 7.1, is used. To this is added 5 μg of the pig renal enzyme and an amount of the test compound to bring its final concentration to 0.1 mM. After a five minute incubation at 37° C., an amount of GDP is added to bring its final concentration to 0.05 mM. The system is again incubated for 10 minutes, at 37° C. Hydrolysis of GDP is measured by its change in optical density with time at 275 nm. Inhibition of the enzyme is gauged by comparison to a standard run containing no inhibitor and is presented as percent inhibition.

[4] = tested on: Staphalococcus aureus; experiment: Systemic efficacy of thienamycin on the treatment of Staphylococcus aureus infections in the mouse; assay type: in vivo, Staphalococcus aureus (in mouse); details: coadministered with thienamycin
[5] = biological target: T2, renal dipeptidase (Sus scrofa, UniProt P22412); experiment: Substrate affinity and maximal velocity of hydrolysis by renal dipeptidase; assay type: biochemical, hog; details: GDP compared with thienamycin
T2 construct: GPI-anchored disulfide-linked homodimer
T2 sequence (P22412 17-384): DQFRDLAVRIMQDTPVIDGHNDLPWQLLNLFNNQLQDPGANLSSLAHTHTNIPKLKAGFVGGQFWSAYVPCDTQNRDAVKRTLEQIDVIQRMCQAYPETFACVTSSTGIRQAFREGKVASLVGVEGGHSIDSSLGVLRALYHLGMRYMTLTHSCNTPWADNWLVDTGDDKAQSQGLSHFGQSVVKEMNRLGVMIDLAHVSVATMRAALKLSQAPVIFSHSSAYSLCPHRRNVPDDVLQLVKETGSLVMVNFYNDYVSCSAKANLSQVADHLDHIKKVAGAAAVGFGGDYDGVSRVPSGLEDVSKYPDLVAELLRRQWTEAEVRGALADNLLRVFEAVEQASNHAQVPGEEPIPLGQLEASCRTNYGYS

[6] = Urinary recovery of thienamycin in the mouse with co-administered inhibitor; assay type: in vivo; details: urine
Description: In addition to this in vitro screen procedure, an in vivo sreen was followed to measure the test compound's ability to inhibit metabolism as reflected by increase in urinary recovery of thienamycin from the mouse. The procedure involves co-administration of the test compound by the intravenous or subcutaneous route at a dose-rate of 10-100 mg/kg, with 10 mg/kg thienamycin. Thienamycin recovery in the urine over a 4 hour period is then compared with its recovery in a control group to which test compound was not coadministered.
Urinary recovery of thienamycin was measured in all cases with the use of a cylinder or disc diffusion assay, conducted in a manner described in U.S. Pat. No. 3,950,357. This bioassay, with Staphylococcus aureus ATCC 6538 as the test organism, has a useful response range from 0.04 μg/ml to 3.0 μg/ml.
An in vivo assay on the mouse was conducted as follows: 20 g Charles River CD, female mice were injected subcutaneously with the chosen dose of the chemical inhibitor. About two minutes later, the dose of thienamycin was given intravenously. A control of thienamycin above was also conducted. The level of thienamycin in the urine as a % of dose was measured using a bioassay technique. The two test compound numbers are those from Table I. Compound 7 is Z-2-isovaleramido-2-butenoicacid; compound 10 is Z-2-cyclopropylcarboxamido-2-butenoic acid. […]

[7] = 10 mg/kg oral plus inhibitor (40 mg/kg SC + 40 mg/kg per os)
[8] = concentration producing 50% inhibition, substrate GDP 0.05 mM, pH 7.1, 37° C.

Q: Which results are given for CCSC1=C(C(=O)O)N2C(=O)[C@H]([C@@H](C)O)[C@H]2S1 (relative stereo) [Thienamycin Class Compound, (±)-[5R,6S]-2-ethylthio-6[(R)-1-hydroxyethyl]-pen-2-em-3-sodiocarboxylate]?
A: concentration at 10 min [1, 7]: 2600 µg/mL; concentration at 10 min ([1]; compound alone, 10 mg/kg oral): 3100 µg/mL; concentration at 0.5 h [1, 7]: 4800 µg/mL; concentration at 0.5 h ([1]; compound alone, 10 mg/kg oral): 3700 µg/mL; concentration at 1 h [1, 7]: 6100 µg/mL; concentration at 1 h ([1]; compound alone, 10 mg/kg oral): 4400 µg/mL; concentration at […] [1, 7]: 3800 µg/mL; concentration at […] ([1]; compound alone, 10 mg/kg oral): 1800 µg/mL; dose excreted at 1 h [2, 7]: 1.5%; dose excreted at 1 h ([2]; compound alone, 10 mg/kg oral): 1.8%; dose excreted at 3 h [2, 7]: 2.3%; dose excreted at 3 h ([2]; compound alone, 10 mg/kg oral): 0.6%; dose excreted [2, 7]: 3.8%; dose excreted ([2]; compound alone, 10 mg/kg oral): 2.4%

Q: With C/C=C(\NC(=O)CC(C)C)C(=O)O [Compound 7, Z-2-isovaleramido-2-butenoic acid] as the compound, how does the Ki [3, 8] read?
A: 6000 nM

Q: What about the “enhancement of systemic antibacterial activity of thienamycin” value [4] of the same compound?
A: approximately three-fold

Q: For CC(C)(C)C/C=C(\NC(=O)C1CC1(C)C)C(=O)O (stereo not drawn) [Compound 62], which Ki [3, 8] is on record?
A: 340 nM

Q: With CC(C)CC/C=C(\NC(=O)C1CC1(C)C)C(=O)O (stereo not drawn) [Compound 63] as the compound, how does the Ki [3, 8] read?
A: 150 nM

Q: With CCCCC/C=C(\NC(=O)[C@H]1CC1(C)C)C(=O)O [Compound 66] as the compound, how does the Ki [3, 8] read?
A: 80 nM

Q: For CC(NCCCCC/C=C(\NC(=O)C1CC1(C)C)C(=O)O)P(=O)(O)O (stereo not drawn) [Example 18B], which Ki ([3]; Example 18B, unit inferred) is on record?
A: 160 nM

Q: For NCC(=O)NC(=Cc1ccccc1)C(=O)O [GDP, glycyldehydrophenylalanine], which “maximal velocity of hydrolysis by renal dipeptidase” value [5] is on record?
A: much higher maximal velocity of hydrolysis

Q: Which dose excreted at 4 h ([6]; Table III, THM alone 10 mg/kg IV or SC, read-out: Urinary Recovery of THM, %) does the source give for C[C@@H](O)[C@H]1C(=O)N2C(C(=O)O)=C(SCCN)C[C@H]12 [Thienamycin] here?
A: 30 ± 5%

Q: And the dose excreted at 4 h ([6]; Table IV, THM alone 10 mg/kg SC, read-out: Urinary Recovery THM, %)?
A: 30 ± 5%

Q: Which “activity of resolved isomers” value ([3]; resolved racemic Z-2-(2,2-dimethylcyclopropanecarboxamido)-2-octenoic acid) does the source give for CCCCC/C=C(\NC(=O)[C@H]1CC1(C)C)C(=O)O [dextrorotatory isomer, Z-2-(2,2-dimethylcyclopropanecarboxamido)-2-octenoic acid] here?
A: The activity resides in the dextrorotatory isomer
